Assay results published in the NIST ThermoML archive (doi:10.1016/j.tca.2014.05.034).

Assay: xn = mol fraction of the nth substance listed
Conditions: 100 kPa, Liquid; for mass density: Pycnometric method; for kinematic viscosity: Capillary tube (Ostwald / Ubbelohde) method

NCCN [ethane-1,2-diamine] + OCCOCCO
Conditions	kinematic viscosity, 313.15 K [m2/s]	kinematic viscosity, 318.15 K [m2/s]	mass density, 308.15 K [kg/m3]	mass density, 313.15 K [kg/m3]	mass density, 318.15 K [kg/m3]
x1 = 0.085	1.54e-05	1.3e-05	1097.7	1094.3	1091
x1 = 0.164	1.71e-05	1.43e-05	1089.4	1085.8	1082.5
x1 = 0.2376	1.82e-05	1.51e-05	1080.3	1076.8	1073.4
x1 = 0.3062	1.85e-05	1.53e-05	1070.8	1067.2	1063.6
x1 = 0.3705	1.78e-05	1.47e-05	1060.8	1057.1	1053.4
x1 = 0.4308	1.64e-05	1.35e-05	1050.1	1046.4	1042.8
x1 = 0.4874	1.43e-05	1.19e-05	1039.1	1035.3	1031.7
x1 = 0.5407	1.19e-05	1e-05	1027	1023.1	1019.5
x1 = 0.5909	9.68e-06	8.16e-06	1015	1011.1	1007.4
x1 = 0.6384	7.83e-06	6.79e-06	1003.1	999.3	995.4
x1 = 0.6834	6.21e-06	5.45e-06	990	986.2	982.5
x1 = 0.7259	5.07e-06	4.5e-06	978.9	975	971.2
x1 = 0.7663	4.05e-06	3.65e-06	966	962.4	958.5
x1 = 0.8047	3.28e-06	2.96e-06	953.3	949.5	945.9
x1 = 0.876	2.26e-06	2.08e-06	930.4	926.6	922.9
x1 = 0.9408	1.63e-06	1.52e-06	908.5	904.8	901.2
x1 = 1	1.17e-06	1.08e-06	884.9	880	875.2
